Results from ChEMBL document CHEMBL1201862, “PubChem BioAssay data set” (2004).
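Grown in 96-well plates, cells were treated for 48 hours with each compound at five concentrations. Insufficient inhibition: endpoint recorded as highest concentration tested. The concentration for 50% growth inhibition is given as GI50.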 The source made the active and inactive calls. No stated cut-off is given here; in the data, active = GI50 up to about 1.1 µM and inactive = higher.

Key:
Test in all cases: NCI anticancer screen, dose series, 48 h
A549 = tested on: A549
EKVX = tested on: EKVX
HCT-116 = tested on: HCT-116
HL-60 = tested on: HL-60
IGROV-1 = tested on: IGROV-1
KM12 = tested on: KM12
LOX IMVI = tested on: LOX IMVI
NCI-H226 = tested on: NCI-H226
SF-268 = tested on: SF-268
SF-539 = tested on: SF-539
SK-MEL-2 = tested on: SK-MEL-2
SK-MEL-5 = tested on: SK-MEL-5
SK-OV-3 = tested on: SK-OV-3
SN12C = tested on: SN12C
SNB-75 = tested on: SNB-75
U-251 = tested on: U-251
UACC-62 = tested on: UACC-62
UO-31 = tested on: UO-31
MDA-MB-435 = tested on: MDA-MB-435
MDA-N = tested on: MDA-N

Structure (SMILES)	GI50 (A549)	GI50 (EKVX)	GI50 (HCT-116)	GI50 (HL-60)	GI50 (IGROV-1)	GI50 (KM12)	GI50 (LOX IMVI)	GI50 (NCI-H226)	GI50 (SF-268)	GI50 (SF-539)	GI50 (SK-MEL-2)	GI50 (SK-MEL-5)	GI50 (SK-OV-3)	GI50 (SN12C)	GI50 (SNB-75)	GI50 (U-251)	GI50 (UACC-62)	GI50 (UO-31)	GI50 (MDA-MB-435)	GI50 (MDA-N)
Cc1ccccc1NC(=O)C(=O)C(c1cnc2ccc([N+](=O)[O-])cc2n1)[N+](=O)[O-] (stereo not given)	> 100 µM (inactive)	> 100 µM (inactive)	> 100 µM (inactive)	24.9 µM (inactive)	> 100 µM (inactive)	> 100 µM (inactive)	> 100 µM (inactive)	> 100 µM (inactive)	> 100 µM (inactive)	> 100 µM (inactive)	> 100 µM (inactive)	87.3 µM (inactive)	> 100 µM (inactive)	> 100 µM (inactive)	> 100 µM (inactive)	> 100 µM (inactive)	51.5 µM (inactive)	54 µM (inactive)	–	–
O=C(C#Cc1cnc(O)nc1O)c1ccccc1Cl	79.1 µM (inactive)	20 µM (inactive)	14.4 µM (inactive)	13.3 µM (inactive)	19.5 µM (inactive)	29.6 µM (inactive)	13.4 µM (inactive)	28.8 µM (inactive)	20.7 µM (inactive)	16.3 µM (inactive)	16.2 µM (inactive)	15 µM (inactive)	51.3 µM (inactive)	14.1 µM (inactive)	19.9 µM (inactive)	17.9 µM (inactive)	16.4 µM (inactive)	21 µM (inactive)	–	–
CS(=O)(=O)CSCSSCS(C)(=O)=O	> 100 µM (inactive)	> 100 µM (inactive)	34.4 µM (inactive)	21.1 µM (inactive)	51.8 µM (inactive)	44.2 µM (inactive)	13.6 µM (inactive)	> 100 µM (inactive)	26.2 µM (inactive)	22 µM (inactive)	21.2 µM (inactive)	40.8 µM (inactive)	> 100 µM (inactive)	29.2 µM (inactive)	> 63.4 µM (inactive)	37.1 µM (inactive)	20.7 µM (inactive)	32.1 µM (inactive)	–	–
COc1ccc(-n2c(N)c(C#N)c(C#N)c2-c2cccc([N+](=O)[O-])c2)cc1	1.53 µM (inactive)	26 µM (inactive)	–	> 100 µM (inactive)	23.8 µM (inactive)	62.5 µM (inactive)	48.3 µM (inactive)	> 100 µM (inactive)	51.9 µM (inactive)	32.4 µM (inactive)	1.77 µM (inactive)	22.9 µM (inactive)	43.7 µM (inactive)	> 100 µM (inactive)	2.96 µM (inactive)	38.8 µM (inactive)	17.5 µM (inactive)	15 µM (inactive)	> 100 µM (inactive)	–
O=C(CCc1nnc2s/c(=C\c3ccc([N+](=O)[O-])cc3)c(=O)n12)Nc1ccc(Cl)c(Cl)c1	40.7 µM (inactive)	–	32.1 µM (inactive)	17.3 µM (inactive)	24.7 µM (inactive)	16 µM (inactive)	15.3 µM (inactive)	14.4 µM (inactive)	18.5 µM (inactive)	17.9 µM (inactive)	27.7 µM (inactive)	58.1 µM (inactive)	38.5 µM (inactive)	25.2 µM (inactive)	10.4 µM (inactive)	16.6 µM (inactive)	26.5 µM (inactive)	41.5 µM (inactive)	–	–
O=C(O)/C(=C\c1ccc(O)cc1)c1cccc2ccccc12	> 100 µM (inactive)	90.6 µM (inactive)	> 100 µM (inactive)	–	> 100 µM (inactive)	> 100 µM (inactive)	> 100 µM (inactive)	> 100 µM (inactive)	> 100 µM (inactive)	–	> 100 µM (inactive)	> 100 µM (inactive)	–	> 100 µM (inactive)	> 100 µM (inactive)	> 100 µM (inactive)	> 100 µM (inactive)	> 100 µM (inactive)	> 100 µM (inactive)	> 100 µM (inactive)
Oc1[nH]c(Nc2ccc(Cl)cc2)nc2ncnc1-2	> 100 µM (inactive)	> 100 µM (inactive)	84.3 µM (inactive)	> 100 µM (inactive)	> 100 µM (inactive)	> 100 µM (inactive)	> 100 µM (inactive)	> 100 µM (inactive)	55 µM (inactive)	> 100 µM (inactive)	> 100 µM (inactive)	> 100 µM (inactive)	> 100 µM (inactive)	> 100 µM (inactive)	43.4 µM (inactive)	> 100 µM (inactive)	> 100 µM (inactive)	–	> 100 µM (inactive)	–
CCOC(=O)C(=O)Nc1nc2c(OCC)cccc2s1	> 100 µM (inactive)	> 100 µM (inactive)	> 100 µM (inactive)	> 100 µM (inactive)	> 100 µM (inactive)	> 100 µM (inactive)	> 100 µM (inactive)	> 100 µM (inactive)	> 100 µM (inactive)	> 100 µM (inactive)	> 100 µM (inactive)	> 100 µM (inactive)	> 100 µM (inactive)	> 100 µM (inactive)	> 100 µM (inactive)	> 100 µM (inactive)	> 100 µM (inactive)	> 100 µM (inactive)	–	–
CCC(=O)OC1=C(c2ccccc2)Sc2ccc(Cl)cc2-n2cccc21	> 10 µM (inactive)	> 10 µM (inactive)	–	3.95 µM (inactive)	> 10 µM (inactive)	9.04 µM (inactive)	8.65 µM (inactive)	–	> 10 µM (inactive)	–	–	> 10 µM (inactive)	> 10 µM (inactive)	5.05 µM (inactive)	> 10 µM (inactive)	–	8.73 µM (inactive)	–	2.22 µM (inactive)	–
O=c1cc(CC(O)(C(F)(F)Cl)C(F)(F)Cl)[nH]n1-c1ccccc1	> 100 µM (inactive)	> 100 µM (inactive)	> 100 µM (inactive)	> 100 µM (inactive)	> 100 µM (inactive)	> 100 µM (inactive)	> 100 µM (inactive)	66.4 µM (inactive)	> 100 µM (inactive)	> 100 µM (inactive)	–	> 100 µM (inactive)	> 100 µM (inactive)	> 100 µM (inactive)	> 100 µM (inactive)	> 100 µM (inactive)	> 100 µM (inactive)	78.9 µM (inactive)	> 100 µM (inactive)	–
CN(C)CCNC(=O)c1cccc2c1nc(-c1ccccc1)c1ccccc12	1.07 µM (active)	12.9 µM (inactive)	2.69 µM (inactive)	1.26 µM (inactive)	3.16 µM (inactive)	6.19 µM (inactive)	1.47 µM (inactive)	2.83 µM (inactive)	5.79 µM (inactive)	2.19 µM (inactive)	11.1 µM (inactive)	2.13 µM (inactive)	6.24 µM (inactive)	3.01 µM (inactive)	6.76 µM (inactive)	5 µM (inactive)	11.9 µM (inactive)	1.82 µM (inactive)	–	–
NC1(CCNC(=O)c2ccccc2)CCN(C(=O)c2ccccc2)CC1	> 100 µM (inactive)	> 100 µM (inactive)	> 100 µM (inactive)	–	> 100 µM (inactive)	> 100 µM (inactive)	–	> 100 µM (inactive)	> 100 µM (inactive)	> 100 µM (inactive)	34.4 µM (inactive)	> 100 µM (inactive)	> 100 µM (inactive)	> 100 µM (inactive)	0.548 µM (active)	> 100 µM (inactive)	> 100 µM (inactive)	> 100 µM (inactive)	> 100 µM (inactive)	> 100 µM (inactive)
CCOC(=O)c1c(N2CCCC2)ncn(C)c1=S	> 100 µM (inactive)	> 100 µM (inactive)	> 100 µM (inactive)	> 100 µM (inactive)	> 100 µM (inactive)	> 100 µM (inactive)	> 100 µM (inactive)	> 100 µM (inactive)	> 100 µM (inactive)	> 100 µM (inactive)	> 100 µM (inactive)	> 100 µM (inactive)	–	> 100 µM (inactive)	–	> 100 µM (inactive)	> 100 µM (inactive)	41.6 µM (inactive)	> 100 µM (inactive)	–
O=C(CCc1ccccc1)ON1C(=S)C(c2ccccc2)(c2ccccc2)N=C1Sc1ccccc1	38.1 µM (inactive)	26.6 µM (inactive)	19.3 µM (inactive)	31.6 µM (inactive)	6.53 µM (inactive)	32.6 µM (inactive)	5.52 µM (inactive)	45.3 µM (inactive)	22.7 µM (inactive)	44.6 µM (inactive)	29.8 µM (inactive)	37.5 µM (inactive)	45.1 µM (inactive)	68.5 µM (inactive)	37.9 µM (inactive)	–	55.1 µM (inactive)	60.3 µM (inactive)	–	–
CC(C)OC(=O)/C=C/C(=O)O/C=C/[N+](=O)[O-]	26.9 µM (inactive)	18.2 µM (inactive)	17.7 µM (inactive)	–	31.6 µM (inactive)	21.5 µM (inactive)	17.5 µM (inactive)	39.9 µM (inactive)	24.5 µM (inactive)	37.1 µM (inactive)	20.2 µM (inactive)	31.6 µM (inactive)	66.8 µM (inactive)	–	–	21.7 µM (inactive)	21.3 µM (inactive)	36.1 µM (inactive)	38.9 µM (inactive)	–
CC(C)=CCN1c2ccccc2NC(=O)CC1C (stereo not given)	> 100 µM (inactive)	51.3 µM (inactive)	–	61.2 µM (inactive)	> 100 µM (inactive)	> 100 µM (inactive)	> 100 µM (inactive)	> 100 µM (inactive)	> 100 µM (inactive)	> 100 µM (inactive)	> 100 µM (inactive)	29.3 µM (inactive)	> 100 µM (inactive)	33.3 µM (inactive)	–	> 100 µM (inactive)	–	83.4 µM (inactive)	> 100 µM (inactive)	–
